US12435046B2, “Alkynyl quinazoline compounds” (Black Diamond Therapeutics, Inc., priority 2019, dated 2025)

Experiments:
Format in all cases: cell-based
Conditions in all cases: Table A; BaF3 cells, 3 days
EGFR wt = target: T1, EGFR wt (Homo sapiens, UniProt P00533); assay: BaF3 cell proliferation assay (CellTiterGlo), EGFR wt
T1 construct: expressed in transfected cells; host or cells: BaF3 (murine pro-B) cells, retroviral transduction with pMXs-IRES-Blasticidin
Procedure: (§1) Retroviral Production: EGFR mutants were subcloned into pMXs-IRES-Blasticidin (RTV-016, Cell Biolabs, San Diego, CA). Retroviral expression vector retrovirus was produced by transient transfection of HEK 293T cells with the retroviral EGFR mutant expression vector pMXs-IRES-Blasticidin (RTV-016, Cell Biolabs), pCMV-Gag-Pol vector and pCMV-VSV-G-Envelope vector. Briefly, HEK 293T/17 cells were plated in 100 mm collagen coated plate (354450, Corning Life Sciences, Tewksbury, MA) (4×10^5 per plate) and incubated overnight. The next day, retroviral plasmids (3 ng of EGFR mutant, 1.0 ng of pCMV-Gag-Pol and 0.5 ng pCMV-VSV-G) were mixed in 500 n1 of Optimem (31985, Life Technologies). The mixture was incubated at room temperature for 5 min and then added to Optimem containing transfection reagent Lipofectamine (11668, Invitrogen) and incubated for 20 minutes. Mixture was then added dropwise to HEK 293T cells. The next day the medium was replaced with fresh culture medium and retrovirus was harvested @ 24 and 48 hrs.
(§2) Generation of EGFR mutant stable cell lines: BaF3 cells (1.5E5 cells) were infected with 1 ml of viral supernatant supplemented with 8 ng/ml polybrene by centrifuging for 30 min at 1000 rpm. Cells were placed in a 37° C. incubator overnight. Cells were then spun for 5 minutes to pellet the cells. Supernatant was removed and cells re-infected a fresh 1 ml of viral supernatant supplemented with 8 ng/ml polybrene by centrifuging for 30 min at 1000 rpm. Cells were placed in 37° C. incubator overnight. Cells were then maintained in RPMI containing 10% Heat Inactivated FBS, 2% L-glutamine containing 10 ng/ml IL-3. After 48 hours cells were selected for retroviral infection in 10 […] for one week. Blasticidin resistant populations were washed twice in phosphate buffered saline before plating in media lacking IL-3 to select for IL-3 independent growth.
(§3) Assay for cell proliferation: BaF3 cell lines were resuspended at 1.3E5 c/ml in RPMI containing 10% Heat Inactivated FBS, 2% L-glutamine and 1% Pen/Strep and dispensed in triplicate (17.5E4 c/well) into 96 well plates. To determine the effect of drug on cell proliferation, cells incubated for 3 days in the presence of vehicle control or test drug at varying concentrations. Inhibition of cell growth was determined by luminescent quantification of intracellular ATP content using CellTiterGlo (Promega), according to the protocol provided by the manufacturer. Comparison of cell number on day 0 versus 72 hours post drug treatment was used to plot dose-response curves. The number of viable cells was determined and normalized to vehicle-treated controls. Inhibition of proliferation, relative to vehicle-treated controls was expressed as a fraction of 1 and graphed using PRISM® software (Graphpad Software, San Diego, CA). EC50 values were determined with the same application.

EGFR V3 = target: T2, EGFR V3 (Homo sapiens, UniProt P00533, DELINS30-297G); assay: BaF3 cell proliferation assay (CellTiterGlo), EGFR V3
T2 construct: expressed in transfected cells; host or cells: BaF3 (murine pro-B) cells, retroviral transduction with pMXs-IRES-Blasticidin
T2 sequence (P00533 with tags, fused parts or gaps DELINS30-297G): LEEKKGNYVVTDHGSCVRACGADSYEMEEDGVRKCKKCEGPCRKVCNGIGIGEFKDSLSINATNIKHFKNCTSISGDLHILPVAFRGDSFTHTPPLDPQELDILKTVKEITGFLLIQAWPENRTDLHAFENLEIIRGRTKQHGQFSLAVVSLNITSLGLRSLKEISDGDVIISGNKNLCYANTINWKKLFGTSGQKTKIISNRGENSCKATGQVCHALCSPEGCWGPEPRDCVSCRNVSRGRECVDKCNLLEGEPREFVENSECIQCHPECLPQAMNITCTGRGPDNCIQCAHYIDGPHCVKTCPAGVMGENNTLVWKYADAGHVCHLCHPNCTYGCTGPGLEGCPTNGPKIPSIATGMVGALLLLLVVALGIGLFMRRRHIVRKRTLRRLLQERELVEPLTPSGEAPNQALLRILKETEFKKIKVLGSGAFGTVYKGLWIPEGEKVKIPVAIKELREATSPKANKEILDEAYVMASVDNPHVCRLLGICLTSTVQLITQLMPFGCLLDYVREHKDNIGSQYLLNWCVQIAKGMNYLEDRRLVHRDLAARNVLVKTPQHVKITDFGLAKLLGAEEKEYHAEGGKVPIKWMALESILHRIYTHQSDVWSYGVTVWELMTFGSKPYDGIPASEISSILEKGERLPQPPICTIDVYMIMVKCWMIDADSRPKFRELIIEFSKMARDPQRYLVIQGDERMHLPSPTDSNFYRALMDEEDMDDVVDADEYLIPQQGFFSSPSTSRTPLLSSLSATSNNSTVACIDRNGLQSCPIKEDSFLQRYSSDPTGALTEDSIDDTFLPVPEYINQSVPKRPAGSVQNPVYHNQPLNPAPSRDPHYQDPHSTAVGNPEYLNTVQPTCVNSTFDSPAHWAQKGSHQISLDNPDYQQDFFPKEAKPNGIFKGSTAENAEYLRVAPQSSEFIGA
Procedure: as §1, §2, §3

HER2 S310F = target: T3, HER2 S310F (Homo sapiens, UniProt P04626, S310F); assay: BaF3 cell proliferation assay (CellTiterGlo), HER2 S310F
T3 construct: expressed in transfected cells; host or cells: BaF3 (murine pro-B) cells
T3 sequence (P04626 23-1255 S310F): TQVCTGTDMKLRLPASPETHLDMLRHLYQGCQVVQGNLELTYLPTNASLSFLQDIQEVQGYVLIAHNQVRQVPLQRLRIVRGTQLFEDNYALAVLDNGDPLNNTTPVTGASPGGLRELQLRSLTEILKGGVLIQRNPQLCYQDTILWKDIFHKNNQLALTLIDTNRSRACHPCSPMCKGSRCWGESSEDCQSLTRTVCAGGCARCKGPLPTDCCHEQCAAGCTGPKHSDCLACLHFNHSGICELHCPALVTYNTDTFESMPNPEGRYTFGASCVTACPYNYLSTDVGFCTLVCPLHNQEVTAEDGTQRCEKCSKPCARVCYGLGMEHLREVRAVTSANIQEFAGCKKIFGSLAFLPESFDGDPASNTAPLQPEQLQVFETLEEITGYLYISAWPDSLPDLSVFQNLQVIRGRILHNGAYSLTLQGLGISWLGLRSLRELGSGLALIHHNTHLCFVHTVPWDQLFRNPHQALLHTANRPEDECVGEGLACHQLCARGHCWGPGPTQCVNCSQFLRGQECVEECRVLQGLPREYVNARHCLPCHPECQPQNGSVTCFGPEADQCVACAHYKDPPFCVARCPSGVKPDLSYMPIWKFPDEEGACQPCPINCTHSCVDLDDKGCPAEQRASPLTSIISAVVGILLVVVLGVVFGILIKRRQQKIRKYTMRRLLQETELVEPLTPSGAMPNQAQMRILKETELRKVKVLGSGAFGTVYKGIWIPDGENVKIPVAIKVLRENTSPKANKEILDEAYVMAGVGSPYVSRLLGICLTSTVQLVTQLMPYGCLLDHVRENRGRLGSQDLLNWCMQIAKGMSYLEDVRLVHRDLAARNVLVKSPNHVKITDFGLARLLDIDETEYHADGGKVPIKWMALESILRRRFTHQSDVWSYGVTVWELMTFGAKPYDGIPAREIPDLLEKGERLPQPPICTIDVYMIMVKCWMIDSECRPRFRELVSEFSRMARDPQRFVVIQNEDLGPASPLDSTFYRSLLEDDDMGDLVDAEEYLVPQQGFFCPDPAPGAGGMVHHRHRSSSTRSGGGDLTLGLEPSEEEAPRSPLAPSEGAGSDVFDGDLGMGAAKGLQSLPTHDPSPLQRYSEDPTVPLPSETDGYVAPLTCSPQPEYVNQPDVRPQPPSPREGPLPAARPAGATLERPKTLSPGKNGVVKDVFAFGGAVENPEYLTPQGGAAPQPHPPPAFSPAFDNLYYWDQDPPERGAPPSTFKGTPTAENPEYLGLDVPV

HER2 YVMA = target: T4, HER2 YVMA (Homo sapiens, UniProt P04626, INS775YVMA); assay: BaF3 cell proliferation assay (CellTiterGlo), HER2 YVMA
T4 construct: expressed in transfected cells; host or cells: BaF3 (murine pro-B) cells
T4 sequence (P04626 with tags, fused parts or gaps INS775YVMA): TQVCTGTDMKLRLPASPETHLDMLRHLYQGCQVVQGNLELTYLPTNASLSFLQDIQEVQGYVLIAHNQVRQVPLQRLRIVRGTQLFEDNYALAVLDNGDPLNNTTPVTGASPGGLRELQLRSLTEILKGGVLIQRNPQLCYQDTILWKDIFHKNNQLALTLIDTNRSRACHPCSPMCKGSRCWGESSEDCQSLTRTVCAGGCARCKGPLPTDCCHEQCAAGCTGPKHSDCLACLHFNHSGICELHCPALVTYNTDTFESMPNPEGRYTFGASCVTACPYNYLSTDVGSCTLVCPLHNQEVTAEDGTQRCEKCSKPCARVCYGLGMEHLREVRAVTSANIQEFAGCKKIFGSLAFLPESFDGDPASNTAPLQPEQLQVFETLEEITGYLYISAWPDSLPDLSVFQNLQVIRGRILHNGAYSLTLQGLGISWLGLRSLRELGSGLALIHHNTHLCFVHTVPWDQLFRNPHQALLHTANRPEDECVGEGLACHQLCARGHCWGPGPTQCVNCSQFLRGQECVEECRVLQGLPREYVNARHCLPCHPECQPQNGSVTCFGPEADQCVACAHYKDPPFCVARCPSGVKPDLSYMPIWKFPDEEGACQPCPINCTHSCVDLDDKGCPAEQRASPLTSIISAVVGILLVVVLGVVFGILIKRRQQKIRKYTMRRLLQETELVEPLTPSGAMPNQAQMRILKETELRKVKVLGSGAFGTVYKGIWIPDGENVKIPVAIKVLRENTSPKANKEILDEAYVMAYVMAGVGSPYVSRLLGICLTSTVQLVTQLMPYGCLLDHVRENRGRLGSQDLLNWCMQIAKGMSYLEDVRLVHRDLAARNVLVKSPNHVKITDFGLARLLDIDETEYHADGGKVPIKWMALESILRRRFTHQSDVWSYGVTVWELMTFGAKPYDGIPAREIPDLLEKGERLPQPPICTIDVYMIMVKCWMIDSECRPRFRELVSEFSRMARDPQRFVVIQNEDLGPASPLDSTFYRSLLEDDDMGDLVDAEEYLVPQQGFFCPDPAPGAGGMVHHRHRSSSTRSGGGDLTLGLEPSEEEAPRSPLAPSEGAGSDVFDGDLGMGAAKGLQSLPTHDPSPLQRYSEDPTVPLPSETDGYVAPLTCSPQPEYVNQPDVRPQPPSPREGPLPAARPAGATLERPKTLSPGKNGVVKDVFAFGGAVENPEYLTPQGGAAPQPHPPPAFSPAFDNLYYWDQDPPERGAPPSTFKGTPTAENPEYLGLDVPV

T1 sequence (P00533 25-1210): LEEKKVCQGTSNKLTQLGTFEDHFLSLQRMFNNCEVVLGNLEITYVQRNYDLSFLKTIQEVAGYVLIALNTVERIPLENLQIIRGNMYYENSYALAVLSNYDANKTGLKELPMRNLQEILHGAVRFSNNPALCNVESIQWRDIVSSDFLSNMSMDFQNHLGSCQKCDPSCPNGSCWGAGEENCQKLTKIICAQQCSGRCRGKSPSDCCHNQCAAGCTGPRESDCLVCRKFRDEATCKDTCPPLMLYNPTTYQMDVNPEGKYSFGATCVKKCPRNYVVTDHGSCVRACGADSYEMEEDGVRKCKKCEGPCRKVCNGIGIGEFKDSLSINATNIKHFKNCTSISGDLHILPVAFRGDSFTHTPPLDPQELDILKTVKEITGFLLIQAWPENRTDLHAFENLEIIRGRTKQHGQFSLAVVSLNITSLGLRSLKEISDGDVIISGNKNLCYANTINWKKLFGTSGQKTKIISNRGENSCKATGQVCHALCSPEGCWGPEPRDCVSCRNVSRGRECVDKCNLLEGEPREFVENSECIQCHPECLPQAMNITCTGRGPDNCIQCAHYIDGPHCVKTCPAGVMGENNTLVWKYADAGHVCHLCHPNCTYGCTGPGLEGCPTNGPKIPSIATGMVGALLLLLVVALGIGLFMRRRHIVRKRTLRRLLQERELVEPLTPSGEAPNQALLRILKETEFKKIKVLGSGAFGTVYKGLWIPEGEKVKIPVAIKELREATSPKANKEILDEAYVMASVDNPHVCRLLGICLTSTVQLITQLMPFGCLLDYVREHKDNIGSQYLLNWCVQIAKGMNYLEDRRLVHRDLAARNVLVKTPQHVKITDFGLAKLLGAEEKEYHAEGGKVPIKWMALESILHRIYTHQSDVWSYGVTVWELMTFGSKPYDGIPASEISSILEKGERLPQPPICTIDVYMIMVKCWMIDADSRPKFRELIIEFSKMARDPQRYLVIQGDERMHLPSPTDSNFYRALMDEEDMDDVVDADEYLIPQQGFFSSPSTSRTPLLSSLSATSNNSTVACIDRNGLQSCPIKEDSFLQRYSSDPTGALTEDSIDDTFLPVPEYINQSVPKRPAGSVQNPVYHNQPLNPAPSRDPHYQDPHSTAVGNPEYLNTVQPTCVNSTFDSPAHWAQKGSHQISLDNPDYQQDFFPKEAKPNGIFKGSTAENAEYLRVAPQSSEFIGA

SMILES | IC50 (EGFR wt) | IC50 (EGFR V3) | IC50 (HER2 S310F) | IC50 (HER2 YVMA)
C=CC(=O)Nc1cc2c(Nc3cccc(Cl)c3F)ncnc2cc1C#CC1(C)CN(C)C2(COC2)C1 (stereo not drawn) [Compound 47, N-(4-((3-chloro-2-fluorophenyl)amino)-7-((5,7-dimethyl-2-oxa-5-azaspiro[3.4]octan-7-yl)ethynyl)quinazolin-6-yl)acrylamide] | > 500 nM | 100 to 500 nM | > 500 nM | > 500 nM
C=CC(=O)Nc1cc2c(Nc3cccc(Cl)c3F)ncnc2cc1C#C[C@]1(C)CCCN(C)C1 [Compound 53, (S)—N-(4-((3-chloro-2-fluorophenyl)amino)-7-((1,3-dimethylpiperidin-3-yl)ethynyl)quinazolin-6-yl)acrylamide] | 100 to 500 nM | 100 to 500 nM | 100 to 500 nM | > 500 nM
C=CC(=O)Nc1cc2c(Nc3cccc(Cl)c3F)ncnc2cc1C#C[C@@]1(C)CCCN(C)C1 [Compound 54, (R)—N-(4-((3-chloro-2-fluorophenyl)amino)-7-((1,3-dimethylpiperidin-3-yl)ethynyl)quinazolin-6-yl)acrylamide] | > 500 nM | 50 to 100 nM | 100 to 500 nM | > 500 nM
C=CC(=O)Nc1cc2c(Nc3cccc(Cl)c3F)ncnc2cc1C#CC1(C)CN(C)CC1(F)F (stereo not drawn) [Compound 55, N-(4-((3-chloro-2-fluorophenyl)amino)-7-((4,4-difluoro-1,3-dimethylpyrrolidin-3-yl)ethynyl)quinazolin-6-yl)acrylamide] | > 500 nM | 100 to 500 nM | 100 to 500 nM | > 500 nM
C=CC(=O)Nc1cc2c(Nc3cccc(Cl)c3F)ncnc2cc1C#CC1(C)CCN(CCF)C1 (stereo not drawn) [Compound 56, N-(4-((3-chloro-2-fluorophenyl)amino)-7-((1-(2-fluoroethyl)-3-methylpyrrolidin-3-yl)ethynyl)quinazolin-6-yl)acrylamide] | 100 to 500 nM | ≤ 50 nM | 100 to 500 nM | > 500 nM
C=CC(=O)Nc1cc2c(Nc3cccc(Cl)c3F)ncnc2cc1C#C[C@]1(C)CCN(C2COC2)C1 [Compound 58, (S)—N-(4-((3-chloro-2-fluorophenyl)amino)-7-((3-methyl-1-(oxetan-3-yl)pyrrolidin-3-yl)ethynyl)quinazolin-6-yl)acrylamide] | 100 to 500 nM | ≤ 50 nM | 50 to 100 nM | > 500 nM
C=CC(=O)Nc1cc2c(Nc3cccc(Cl)c3F)ncnc2cc1C#C[C@@]1(C)CCN(C2COC2)C1 [Compound 59, (R)—N-(4-((3-chloro-2-fluorophenyl)amino)-7-((3-methyl-1-(oxetan-3-yl)pyrrolidin-3-yl)ethynyl)quinazolin-6-yl)acrylamide] | 100 to 500 nM | ≤ 50 nM | 100 to 500 nM | > 500 nM
C=CC(=O)Nc1cc2c(Nc3cccc(Cl)c3F)ncnc2cc1C#CC1(F)CCN(C)C1 (stereo not drawn) [Compound 60, N-(4-((3-chloro-2-fluorophenyl)amino)-7-((3-fluoro-1-methylpyrrolidin-3-yl)ethynyl)quinazolin-6-yl)acrylamide] | 100 to 500 nM | ≤ 50 nM | 50 to 100 nM | 100 to 500 nM
C=CC(=O)Nc1cc2c(Nc3ccc(OCc4cccc(F)c4)c(Cl)c3)ncnc2cc1C#CC1(C)CCOC1 (stereo not drawn) [Compound 61, N-(4-((3-chloro-4-((3-fluorobenzyl)oxy)-phenyl)amino)-7-((3-methyltetrahydrofuran-3-yl)ethynyl)quinazolin-6-yl)acrylamide] | > 500 nM | 100 to 500 nM | 50 to 100 nM | 100 to 500 nM
C=CC(=O)Nc1cc2c(Nc3cccc(Cl)c3F)ncnc2cc1C#CC1(C(F)(F)F)CCN(C)C1 (stereo not drawn) [Compound 62, N-(4-((3-chloro-2-fluorophenyl)amino)-7-((1-methyl-3-(trifluoromethyl)pyrrolidin-3-yl)ethynyl)quinazolin-6-yl)acrylamide] | > 500 nM | 100 to 500 nM | 100 to 500 nM | > 500 nM
C=CC(=O)Nc1cc2c(Nc3ccc(Cl)c(Cl)c3F)ncnc2cc1C#CC1(C)CCOC1 (stereo not drawn) [Compound 63, N-(4-((3,4-dichloro-2-fluorophenyl)amino)-7-((3-methyltetrahydrofuran-3-yl)ethynyl)quinazolin-6-yl)acrylamide] | 100 to 500 nM | ≤ 50 nM | 100 to 500 nM | > 500 nM
C=CC(=O)Nc1cc2c(Nc3cccc(Cl)c3F)ncnc2cc1C#CC12CC1CN(C1COC1)C2 (stereo not drawn) [Compound 64, N-(4-((3-chloro-2-fluorophenyl)amino)-7-((3-(oxetan-3-yl)-3-azabicyclo[3.1.0]hexan-1-yl)ethynyl)quinazolin-6-yl)acrylamide] | 100 to 500 nM | ≤ 50 nM | 100 to 500 nM | 100 to 500 nM

Now from value to molecule:

IC50 (EGFR wt) | IC50 (EGFR V3) | IC50 (HER2 S310F) | IC50 (HER2 YVMA) | SMILES
100 to 500 nM | 100 to 500 nM | 100 to 500 nM | > 500 nM | C=CC(=O)Nc1cc2c(Nc3cccc(Cl)c3F)ncnc2cc1C#C[C@]12C[C@H]1CN(C1COC1)C2 [Compound 48, N-(4-((3-chloro-2-fluorophenyl)amino)-7-(((1S,5R)-3-(oxetan-3-yl)-3-azabicyclo[3.1.0]hexan-1-yl)ethynyl)quinazolin-6-yl)acrylamide]
50 to 100 nM | ≤ 50 nM | 50 to 100 nM | 100 to 500 nM | C=CC(=O)Nc1cc2c(Nc3cccc(Cl)c3F)ncnc2cc1C#C[C@]12C[C@H]1CN(C)C2 [Compound 49, N-(4-((3-chloro-2-fluorophenyl)amino)-7-(((1S,5R)-3-methyl-3-azabicyclo[3.1.0]hexan-1-yl)ethynyl)quinazolin-6-yl)acrylamide]
50 to 100 nM | ≤ 50 nM | 50 to 100 nM | 100 to 500 nM | C=CC(=O)Nc1cc2c(Nc3cccc(Cl)c3F)ncnc2cc1C#C[C@@]12C[C@@H]1CN(C1COC1)C2 [Compound 50, N-(4-((3-chloro-2-fluorophenyl)amino)-7-(((1R,5S)-3-(oxetan-3-yl)-3-azabicyclo[3.1.0]hexan-1-yl)ethynyl)quinazolin-6-yl)acrylamide]
50 to 100 nM | ≤ 50 nM | ≤ 50 nM | 100 to 500 nM | C=CC(=O)Nc1cc2c(Nc3cccc(Cl)c3F)ncnc2cc1C#C[C@@]12C[C@@H]1CN(C)C2 [Compound 51, N-(4-((3-chloro-2-fluorophenyl)amino)-7-(((1R,5S)-3-methyl-3-azabicyclo[3.1.0]hexan-1-yl)ethynyl)quinazolin-6-yl)acrylamide]
100 to 500 nM | ≤ 50 nM | 50 to 100 nM | 100 to 500 nM | C=CC(=O)Nc1cc2c(Nc3cccc(Cl)c3F)ncnc2cc1C#CC1(OC)CCN(C)C1 (stereo not drawn) [Compound 52, N-(4-((3-chloro-2-fluorophenyl)amino)-7-((3-methoxy-1-methylpyrrolidin-3-yl)ethynyl)quinazolin-6-yl)acrylamide]
≤ 50 nM | > 500 nM | > 500 nM | > 500 nM | CNC(=O)Nc1cc2c(Nc3cccc(Cl)c3F)ncnc2cc1C#CC1(C)CCN(C)C1 (stereo not drawn) [Compound 57, 1-(4-((3-chloro-2-fluorophenyl)amino)-7-((1,3-dimethylpyrrolidin-3-yl)ethynyl)quinazolin-6-yl)-3-methylurea]
